Assay results from the supplement of paper PMC11208160.
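Further: IS621 recombinase and bridge RNA in Escherichia coli cells.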

Test: recombinant barcode read abundance after kanamycin selection (control-corrected) (log10(CPM+1)); higher = more efficient recombination; sequences stand for … in AGTGCAGAGAAAATCGGCCAGTTTTCTCTGCCTGCAGTCCGCATGCCGT…AGATTTATGCAGCGGACTGCCTTTCTCCCAAAGTGATAAACCGGACAGTATCATGGACCGGTTTTCCCGGTAATCCGTATTTGCAAGGTTGGTTTCACT; site = the 11-nt target
In short: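 Two replicates per condition were plated: chloramphenicol/ampicillin LB agar for the control, and chloramphenicol/ampicillin/kanamycin with 0.1 mM IPTG for selection. The pooled E. coli screen behind them paired targets with IS621 bridge RNA target-binding loops. Recombination efficiency is expressed from averaged, control-corrected barcode counts per million at recombinant junctions, as log10(CPM+1).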
With “AGTTTAACTTGGGTTCTAACCTGTTGCAC (site GTCGGTCCTCG)” the “recombinant barcode read abundance (log10)” value was 0.258.
For “ATAAAAGCTTGGGTTCTAACCTGTTGCCT (site ATAAAAGCTAG)”, the “recombinant barcode read abundance (log10)” value was 1.5.
For “ATAAAAGCTTGGGTTCTAACCTGTTGCCT (site ATAACAGCTAG)”, the “recombinant barcode read abundance (log10)” value was 0.0538.
With “ATAAAAGCTTGGGTTCTAACCTGTTGCCT (site ATAAGAGCTAG)” the “recombinant barcode read abundance (log10)” value was 0.172.
For “ATAAAAGCTTGGGTTCTAACCTGTTGCCT (site ATAATAGCTAG)”, the “recombinant barcode read abundance (log10)” value was 0.59.
In the case of “ATAAACCCTTGGGTTCTAACCTGTTGCAT (site AGAATCCCTAT)”, the “recombinant barcode read abundance (log10)” value was 0.324.
In the case of “ATAAACCCTTGGGTTCTAACCTGTTGCAT (site ATAAACCCTAT)”, the “recombinant barcode read abundance (log10)” value was 2.4.
For “ATAACCTCTTGGGTTCTAACCTGTTGCCT (site ATAACCTCTAG)”, the “recombinant barcode read abundance (log10)” value was 2.
In the case of “ATAACCTCTTGGGTTCTAACCTGTTGCCT (site GAGGTGCCTCT)”, the “recombinant barcode read abundance (log10)” value was 0.
For “ATAAGACCTTGGGTTCTAACCTGTTGCCT (site ATAAGACCTAG)”, the “recombinant barcode read abundance (log10)” value was 2.24.
For “ATAAGACCTTGGGTTCTAACCTGTTGCCT (site ATGAGAGCTAG)”, the “recombinant barcode read abundance (log10)” value was 0.229.
In the case of “ATAAGGCCTTGGGTTCTAACCTGTTGCCT (site ATAAAGCCTAG)”, the “recombinant barcode read abundance (log10)” value was 0.102.
In the case of “ATAAGGCCTTGGGTTCTAACCTGTTGCCT (site ATAAGGCCTAG)”, the “recombinant barcode read abundance (log10)” value was 0.154.
For “ATAGAATCTTGGGTTCTAACCTGTTGCTC (site ATAGAATCTGA)”, the “recombinant barcode read abundance (log10)” value was 1.96.
With “ATAGAATCTTGGGTTCTAACCTGTTGCTC (site TGCCTGCCTCT)” the “recombinant barcode read abundance (log10)” value was 0.204.
For “ATAGACCCTTGGGTTCTAACCTGTTGCCT (site ATAGACCCTAG)”, the “recombinant barcode read abundance (log10)” value was 2.36.
With “ATAGACCCTTGGGTTCTAACCTGTTGCCT (site CTAGACCCTAG)” the “recombinant barcode read abundance (log10)” value was 0.918.
For “ATAGACCCTTGGGTTCTAACCTGTTGCCT (site GTAGACCCTAG)”, the “recombinant barcode read abundance (log10)” value was 0.599.
In the case of “ATAGACCCTTGGGTTCTAACCTGTTGCCT (site TTAGACCCTAG)”, the “recombinant barcode read abundance (log10)” value was 1.49.
For “ATAGAGTCTTGGGTTCTAACCTGTTGCCT (site ACAGATTCTAG)”, the “recombinant barcode read abundance (log10)” value was 0.143.
For “ATAGAGTCTTGGGTTCTAACCTGTTGCCT (site ATAGAGTCTAG)”, the “recombinant barcode read abundance (log10)” value was 2.64.
With “ATAGGGTCTTGGGTTCTAACCTGTTGCCT (site AAAGGGTCTAG)” the “recombinant barcode read abundance (log10)” value was 1.04.
In the case of “ATAGGGTCTTGGGTTCTAACCTGTTGCCT (site ACAGGGTCTAG)”, the “recombinant barcode read abundance (log10)” value was 1.85.
In the case of “ATAGGGTCTTGGGTTCTAACCTGTTGCCT (site AGAGGGTCTAG)”, the “recombinant barcode read abundance (log10)” value was 0.211.
In the case of “ATAGGGTCTTGGGTTCTAACCTGTTGCCT (site ATAGGGTCTAG)”, the “recombinant barcode read abundance (log10)” value was 2.5.
With “ATAGGTCCTTGGGTTCTAACCTGTTGCCT (site ATAGGTCCTAG)” the “recombinant barcode read abundance (log10)” value was 1.58.
With “ATAGGTCCTTGGGTTCTAACCTGTTGCCT (site ATCGGTCCTAG)” the “recombinant barcode read abundance (log10)” value was 0.202.
For “ATAGGTCCTTGGGTTCTAACCTGTTGCCT (site ATGGGTCCTAG)”, the “recombinant barcode read abundance (log10)” value was 0.189.
With “ATAGGTCCTTGGGTTCTAACCTGTTGCCT (site ATTGGTCCTAG)” the “recombinant barcode read abundance (log10)” value was 0.309.
In the case of “ATATCAACTTGGGTTCTAACCTGTTGCCG (site ATATCAACTCG)”, the “recombinant barcode read abundance (log10)” value was 0.625.
With “ATATCAACTTGGGTTCTAACCTGTTGCCG (site TCTGTGTCTTA)” the “recombinant barcode read abundance (log10)” value was 0.0298.
For “ATATCTTCTTGGGTTCTAACCTGTTGCCT (site ATATCTTCTAG)”, the “recombinant barcode read abundance (log10)” value was 1.03.
In the case of “ATATCTTCTTGGGTTCTAACCTGTTGCCT (site ATTTCTTCTAG)”, the “recombinant barcode read abundance (log10)” value was 0.578.
In the case of “ATATGATCTTGGGTTCTAACCTGTTGCCT (site ATATGATCTAG)”, the “recombinant barcode read abundance (log10)” value was 1.43.
In the case of “ATATGATCTTGGGTTCTAACCTGTTGCCT (site ATATTATCTTG)”, the “recombinant barcode read abundance (log10)” value was 0.145.
With “ATATGTACTTGGGTTCTAACCTGTTGCCA (site ATATGTACTCG)” the “recombinant barcode read abundance (log10)” value was 0.22.
With “ATATGTACTTGGGTTCTAACCTGTTGCCA (site ATATGTACTTG)” the “recombinant barcode read abundance (log10)” value was 0.733.
With “ATATGTCCTTGGGTTCTAACCTGTTGCAA (site ATATGTCCTTT)” the “recombinant barcode read abundance (log10)” value was 0.715.
For “ATATGTCCTTGGGTTCTAACCTGTTGCAA (site GGTGCATCTAA)”, the “recombinant barcode read abundance (log10)” value was 0.0198.
In the case of “ATCAAAGCTTGGGTTCTAACCTGTTGCCT (site ATCAAAGCTAG)”, the “recombinant barcode read abundance (log10)” value was 0.154.
For “ATCAAAGCTTGGGTTCTAACCTGTTGCCT (site ATCACAGCTAG)”, the “recombinant barcode read abundance (log10)” value was 0.156.
With “ATCAAGCCTTGGGTTCTAACCTGTTGCAG (site ATCAAGCCTCT)” the “recombinant barcode read abundance (log10)” value was 1.83.
For “ATCAAGCCTTGGGTTCTAACCTGTTGCAG (site TATCCCTCTAG)”, the “recombinant barcode read abundance (log10)” value was 0.0814.
For “ATCAAGCCTTGGGTTCTAACCTGTTGCTT (site ATCAAGCCTAA)”, the “recombinant barcode read abundance (log10)” value was 0.102.
In the case of “ATCAAGCCTTGGGTTCTAACCTGTTGCTT (site ATGAAGCCTAA)”, the “recombinant barcode read abundance (log10)” value was 0.122.
In the case of “ATCATAGCTTGGGTTCTAACCTGTTGCGC (site ATCATAGCTGC)”, the “recombinant barcode read abundance (log10)” value was 0.504.
With “ATCATAGCTTGGGTTCTAACCTGTTGCGC (site CCATACCCTTA)” the “recombinant barcode read abundance (log10)” value was 0.0517.
In the case of “ATCATTCCTTGGGTTCTAACCTGTTGCCT (site AACATACCTAG)”, the “recombinant barcode read abundance (log10)” value was 0.237.
In the case of “ATCATTCCTTGGGTTCTAACCTGTTGCCT (site ATCATTCCTAG)”, the “recombinant barcode read abundance (log10)” value was 0.542.
In the case of “ATCCTTACTTGGGTTCTAACCTGTTGCCT (site AACCTTACTAG)”, the “recombinant barcode read abundance (log10)” value was 0.247.
For “ATCCTTACTTGGGTTCTAACCTGTTGCCT (site ACCCTTACTAG)”, the “recombinant barcode read abundance (log10)” value was 0.136.
With “ATCCTTACTTGGGTTCTAACCTGTTGCCT (site AGCCTTACTAG)” the “recombinant barcode read abundance (log10)” value was 0.156.
For “ATCCTTACTTGGGTTCTAACCTGTTGCCT (site ATCCTTACTAG)”, the “recombinant barcode read abundance (log10)” value was 1.16.
With “ATCGCTTCTTGGGTTCTAACCTGTTGCCT (site AACGCTTCTAG)” the “recombinant barcode read abundance (log10)” value was 0.246.
With “ATCGCTTCTTGGGTTCTAACCTGTTGCCT (site ACCGCTTCTAG)” the “recombinant barcode read abundance (log10)” value was 0.272.
In the case of “ATCGCTTCTTGGGTTCTAACCTGTTGCCT (site AGCGCTTCTAG)”, the “recombinant barcode read abundance (log10)” value was 0.432.
For “ATCGCTTCTTGGGTTCTAACCTGTTGCCT (site ATCGCTTCTAG)”, the “recombinant barcode read abundance (log10)” value was 0.0338.
In the case of “ATCGGACCTTGGGTTCTAACCTGTTGCCT (site ATCGGAACTAG)”, the “recombinant barcode read abundance (log10)” value was 0.0754.
With “ATCGGACCTTGGGTTCTAACCTGTTGCCT (site ATCGGACCTAG)” the “recombinant barcode read abundance (log10)” value was 1.23.
For “ATCGGACCTTGGGTTCTAACCTGTTGCCT (site ATCGGAGCTAG)”, the “recombinant barcode read abundance (log10)” value was 0.206.
For “ATCGGACCTTGGGTTCTAACCTGTTGCCT (site ATCGGATCTAG)”, the “recombinant barcode read abundance (log10)” value was 0.107.
For “ATCGGAGCTTGGGTTCTAACCTGTTGCCT (site ATCGGAACTAG)”, the “recombinant barcode read abundance (log10)” value was 0.196.
For “ATCGGAGCTTGGGTTCTAACCTGTTGCCT (site ATCGGACCTAG)”, the “recombinant barcode read abundance (log10)” value was 0.0265.
In the case of “ATCGGAGCTTGGGTTCTAACCTGTTGCCT (site ATCGGAGCTAG)”, the “recombinant barcode read abundance (log10)” value was 0.775.
With “ATCGGAGCTTGGGTTCTAACCTGTTGCCT (site ATCGGATCTAG)” the “recombinant barcode read abundance (log10)” value was 0.181.
In the case of “ATCGTACCTTGGGTTCTAACCTGTTGCTG (site ATCCTACCTAA)”, the “recombinant barcode read abundance (log10)” value was 0.167.
